From the supplement of paper PMC11451515

Test system: P12-Ichikawa
Test: cell viability relative to DMSO control; higher = less cytotoxic
Details: 48 h
Outline: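 Viability is expressed as a percentage of DMSO wells within each plate, and cell-free wells serve as background. Seeding densities in the 1536-well plates (5 μl) were 500 cells/well for NOMO1 or SEM leukemia cells and 1000 cells/well for P12-Ichikawa. Each line was adapted for at least four passages in each medium. Library compounds in DMSO were pin-dosed at 47 μM to 0.79 nM (11 points, threefold), and CellTiter-Glo One luminescence was read after 48 h at 37°C.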

[1] = HPLM + 10% dialyzed FBS, 0.000781 µM
[2] = HPLM + 10% dialyzed FBS, 0.00234 µM
[3] = HPLM + 10% dialyzed FBS, 0.00702 µM
[4] = HPLM + 10% dialyzed FBS, 0.0211 µM
[5] = HPLM + 10% dialyzed FBS, 0.0632 µM
[6] = HPLM + 10% dialyzed FBS, 0.19 µM
[7] = HPLM + 10% dialyzed FBS, 0.569 µM
[8] = HPLM + 10% dialyzed FBS, 1.71 µM
[9] = HPLM + 10% dialyzed FBS, 5.12 µM
[10] = HPLM + 10% dialyzed FBS, 15.4 µM
[11] = HPLM + 10% dialyzed FBS, 46.1 µM
[12] = RPMI 5 mM glucose + 10% FBS, 0.000781 µM
[13] = RPMI 5 mM glucose + 10% FBS, 0.00234 µM
[14] = RPMI 5 mM glucose + 10% FBS, 0.00702 µM
[15] = RPMI 5 mM glucose + 10% FBS, 0.0211 µM
[16] = RPMI 5 mM glucose + 10% FBS, 0.0632 µM
[17] = RPMI 5 mM glucose + 10% FBS, 0.19 µM
[18] = RPMI 5 mM glucose + 10% FBS, 0.569 µM
[19] = RPMI 5 mM glucose + 10% FBS, 1.71 µM
[20] = RPMI 5 mM glucose + 10% FBS, 5.12 µM
[21] = RPMI 5 mM glucose + 10% FBS, 15.4 µM
[22] = RPMI 5 mM glucose + 10% FBS, 46.1 µM
[23] = RPMI 5 mM glucose + 10% dialyzed FBS, 0.000781 µM
[24] = RPMI 5 mM glucose + 10% dialyzed FBS, 0.00234 µM
[25] = RPMI 5 mM glucose + 10% dialyzed FBS, 0.00702 µM
[26] = RPMI 5 mM glucose + 10% dialyzed FBS, 0.0211 µM
[27] = RPMI 5 mM glucose + 10% dialyzed FBS, 0.0632 µM
[28] = RPMI 5 mM glucose + 10% dialyzed FBS, 0.19 µM
[29] = RPMI 5 mM glucose + 10% dialyzed FBS, 0.569 µM
[30] = RPMI 5 mM glucose + 10% dialyzed FBS, 1.71 µM
[31] = RPMI 5 mM glucose + 10% dialyzed FBS, 5.12 µM
[32] = RPMI 5 mM glucose + 10% dialyzed FBS, 15.4 µM
[33] = RPMI 5 mM glucose + 10% dialyzed FBS, 46.1 µM

SMILES	cell viability [1]	cell viability [2]	cell viability [3]	cell viability [4]	cell viability [5]	cell viability [6]	cell viability [7]	cell viability [8]	cell viability [9]	cell viability [10]	cell viability [11]	cell viability [12]	cell viability [13]	cell viability [14]	cell viability [15]	cell viability [16]	cell viability [17]	cell viability [18]	cell viability [19]	cell viability [20]	cell viability [21]	cell viability [22]	cell viability [23]	cell viability [24]	cell viability [25]	cell viability [26]	cell viability [27]	cell viability [28]	cell viability [29]	cell viability [30]	cell viability [31]	cell viability [32]	cell viability [33]
OC[C@H]1OCC(O1)[N@@]2C=CC(N)=NC2=O (stereo partly specified)	121%	118%	113%	121%	112%	118%	117%	107%	115%	108%	115%	108%	125%	117%	118%	118%	117%	118%	107%	104%	101%	103%	116%	121%	115%	109%	114%	113%	109%	106%	105%	104%	105%
C#C[C@]1(O)CC[C@H]2[C@@H]3CCc4cc(O)ccc4[C@H]3CC[C@@]21C	102%	98.3%	95.9%	97.4%	95.7%	102%	89.5%	97.3%	95.8%	75.3%	47.2%	98.3%	95.6%	89.4%	93.6%	92.3%	94.3%	96.7%	83.7%	89.1%	67.7%	42.6%	87.5%	86.7%	88.9%	92.3%	93.3%	92.4%	95.6%	85.6%	81.8%	72.5%	58.3%
OC1CCC(Nc2ncc3nc(Nc4c(F)cc(F)cc4F)n([C@@H]4CCOC4)c3n2)CC1 (stereo partly specified)	111%	114%	115%	117%	119%	126%	127%	124%	120%	117%	114%	113%	123%	114%	119%	127%	122%	134%	127%	120%	118%	123%	111%	117%	114%	120%	117%	117%	127%	119%	126%	121%	114%
O=C(O)c1ccc2c(c1)nc(Nc1cccc(Cl)c1)c1ccncc12	106%	112%	104%	104%	108%	109%	104%	104%	94.8%	71.8%	83.4%	112%	111%	108%	98.4%	108%	108%	105%	100%	84.4%	58.9%	70.2%	99.4%	94.2%	93.8%	97.4%	100%	95.9%	94.5%	101%	77.8%	51.4%	73%
COc1ccc(-c2ccc3c(N4CCOC[C@@H]4C)nc(N4CCOC[C@@H]4C)nc3n2)cc1CO	108%	82.1%	97%	82.8%	83.9%	77.7%	75.2%	74.7%	64.3%	37.6%	6.75%	93.9%	58.7%	80.3%	77.5%	66.2%	59.7%	60.5%	58.9%	54.3%	42.4%	18.6%	103%	65.6%	86.6%	78.7%	76.1%	70.8%	66.5%	58.3%	47.2%	39%	10.3%
C[S+]([O-])(=O)C1=CC=C(C=C1)C/2=C(/C(=O)OC2)C3=CC=CC=C3	113%	120%	112%	122%	126%	126%	117%	125%	123%	125%	122%	108%	125%	112%	115%	124%	133%	141%	135%	134%	132%	131%	107%	120%	115%	110%	123%	120%	120%	118%	125%	121%	109%
CC(C)C[C@H](NC(=O)[C@H](CCc1ccccc1)NC(=O)CN1CCOCC1)C(=O)N[C@@H](Cc1ccccc1)C(=O)N[C@@H](CC(C)C)C(=O)[C@@]1(C)CO1	86.2%	96.7%	95.1%	86.1%	5.6%	5.9%	5.35%	4.68%	1.59%	-0.411%	-0.285%	83.1%	96.3%	92.7%	46.1%	4.86%	4.74%	4.53%	4.03%	2.11%	-0.0452%	-0.307%	78.8%	94.4%	91.2%	54.1%	5.27%	4.96%	4.93%	3.8%	1.93%	-0.204%	-0.46%
